Measurements: PMC12005229, “Final results from the phase Ia/Ib study of the novel bromodomain and extra-terminal domain inhibitor, BI 894999, in patients with advanced solid tumors or diffuse large B-cell lymphoma” (ESMO Open, 2025)
Like-named read-outs stand apart in the source and are kept apart here.

Experiment: plasma pharmacokinetics, LC-MS/MS, noncompartmental analysis
Assay type: in vivo, human
Conditions: for Tmax / AUC(0-t) / Cmax: human, plasma, oral
Protocol: Samples were collected for PK analysis in cycle 1: 5 min pre-dose, 30 min, 1, 2, 3, 4, 6, and 8 h after drug administration on day 1 (schedules B and C) and on day 14 (for schedule B) or day 21 (for schedule C); 5 min pre-dose on days 8 and 12 (for schedule B) and at time of the visit on day 8 (168 h) for schedule C; 5 min pre-dose on day 18 (at time of the visit) for schedule B; and on day 22 (504 and 512 h) and day 29 (at time of the visit) for schedule C. For schedule B, a few additional samples were also taken in cycle 2: 5 min pre-dose, 2, 4, and 8 h on day 1, and 5 min pre-dose on day 2.
BI 894999 plasma concentrations were determined using a validated assay based on liquid chromatography coupled with tandem mass spectrometry. PK parameters were determined by noncompartmental analysis using the Phoenix WinNonlin software (Phoenix 6.3, Certara USA Inc., Princeton, NJ).

CNc1nc(-c2nc3ccc(N4CCN(C)CC4)cc3n2Cc2ccccc2)cn2c(C)nnc12 [BI 894999]
Tmax (1.5 mg, phase Ia DLBCL, schedule B 1.5 mg, day 1, read-out: tmax median): 2.02 h | Tmax (1.5 mg, phase Ia DLBCL, schedule B 1.5 mg, day 14, read-out: tmax,ss median): 2.56 h | Tmax (2 mg, phase Ia DLBCL, schedule B 2.0 mg, day 1, read-out: tmax median): 2.01 h | AUC(0-t) (2 mg, phase Ia DLBCL, schedule B 2.0 mg, day 14, read-out: AUC0–24,ss gMean (gCV, %)): 0.12 µM·h | Tmax (2 mg, phase Ia DLBCL, schedule B 2.0 mg, day 14, read-out: tmax,ss median): 2.12 h | Tmax (2 mg, phase Ib solid tumors, schedule B 2.0 mg, day 1, read-out: tmax median): 2 h | Tmax (2 mg, phase Ib solid tumors, schedule B 2.0 mg, day 14, read-out: tmax,ss median): 2 h | AUC(0-t) (2.5 mg, phase Ia DLBCL, schedule B 2.5 mg, day 1, read-out: AUC0–24 gMean (gCV, %)): 0.0533 µM·h | Tmax (2.5 mg, phase Ia DLBCL, schedule B 2.5 mg, day 1, read-out: tmax median): 2.04 h | Tmax (2.5 mg, phase Ib, schedule B 2.5 mg including NUT carcinoma, day 1, read-out: tmax median): 2.01 h | AUC(0-t) (2.5 mg, phase Ib, schedule B 2.5 mg including NUT carcinoma, day 14, read-out: AUC0–24,ss gMean (gCV, %)): 0.125 µM·h | Tmax (2.5 mg, phase Ib, schedule B 2.5 mg including NUT carcinoma, day 14, read-out: tmax,ss median): 2 h | AUC(0-t) (4 mg, phase Ia DLBCL, schedule C 4.0/2.0 mg, day 1 after loading dose, read-out: AUC0–24 gMean (gCV, %)): 0.138 µM·h | Tmax (4 mg, phase Ia DLBCL, schedule C 4.0/2.0 mg, day 1 after loading dose, read-out: tmax median): 2 h | AUC(0-t) (6 mg, phase Ib, schedule C 6.0/3.0 mg NUT carcinoma only, day 1 after loading dose, read-out: AUC0–24 gMean (gCV, %)): 0.214 µM·h | Tmax (6 mg, phase Ib, schedule C 6.0/3.0 mg NUT carcinoma only, day 1 after loading dose, read-out: tmax median): 2 h | AUC(0-t) (phase Ib, schedule C 6.0/3.0 mg NUT carcinoma only, day 21, read-out: AUC0–24,ss gMean (gCV, %)): 0.149 µM·h | Tmax (phase Ib, schedule C 6.0/3.0 mg NUT carcinoma only, day 21, read-out: tmax,ss median): 2.05 h | Tmax (single dose day 1 and once-daily multiple doses days 14 or 21, read-out: median time to maximum plasma concentration (tmax)): ~2 h | Cmax (phase Ia DLBCL, schedule B 2.0 mg, day 14, read-out: Cmax,ss gMean (gCV, %)): 7.67 nM | Cmax (phase Ia DLBCL, schedule B 2.5 mg, day 1, read-out: Cmax gMean (gCV, %)): 4.75 nM | dose dependence of plasma concentrations (within a dosing schedule and indication): increased with increasing dose
